Data published in patent US11248254B2, “Method and system employing distinguishable polymerases for detecting ternary complexes and identifying cognate nucleotides” (Omniome, Inc., priority 2016, dated 2022).

Experiments:
Type in all cases: binding
[1] = target: T1, ternary complex of primed template nucleic acid, Bst DNA polymerase large fragment and cognate nucleotide (Geobacillus stearothermophilus, UniProt P52026); experiment: Biolayer interferometry: formation and retention of ternary complexes with different non-catalytic metal ions; details: 2 mM test metal ion; for binding signal when ternary complexes formed on primed template nucleic acid: 100 μM correct nucleotide, 200 nM Bst polymerase, 60 s binding (FIG. 2); for ternary complex decay / stability following washing: wash without polymerase, 10 μM correct dNTP, 100 μM incorrect dNTP, 300 s (FIG. 2); for ternary complex binding signal following a wash step, expressed as a percentage of the maximum signal: wash in absence of non-bound polymerase, baseline = signal at initial nucleotide contact
T1 construct: 200 nM unlabeled Bst DNA polymerase large fragment
T1 sequence (P52026 289-876 limits assumed): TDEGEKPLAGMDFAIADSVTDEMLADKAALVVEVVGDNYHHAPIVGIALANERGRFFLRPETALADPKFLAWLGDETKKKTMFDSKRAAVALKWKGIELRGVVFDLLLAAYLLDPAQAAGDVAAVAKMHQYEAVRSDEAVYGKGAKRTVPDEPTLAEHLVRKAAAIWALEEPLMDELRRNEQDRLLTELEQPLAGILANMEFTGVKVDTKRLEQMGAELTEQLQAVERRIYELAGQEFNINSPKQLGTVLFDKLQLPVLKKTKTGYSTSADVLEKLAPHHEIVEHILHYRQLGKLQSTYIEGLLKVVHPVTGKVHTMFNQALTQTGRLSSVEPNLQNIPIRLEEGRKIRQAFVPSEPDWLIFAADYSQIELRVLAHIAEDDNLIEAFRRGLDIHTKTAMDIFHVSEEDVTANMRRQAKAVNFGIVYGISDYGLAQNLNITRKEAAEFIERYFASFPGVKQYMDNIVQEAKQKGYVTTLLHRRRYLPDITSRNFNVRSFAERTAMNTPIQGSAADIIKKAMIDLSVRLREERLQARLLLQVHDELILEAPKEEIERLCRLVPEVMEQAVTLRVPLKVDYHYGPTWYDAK
Excerpt: A FORTEBIO® (Menlo Park, Calif.) Octet instrument employing biolayer interferometry to measure binding reactions at the surface of a fiber optic tip was used in a multiwell plate format to assess formation and stability of ternary complexes in the presence of different non-catalytic metal ions. Template nucleic acid strands biotinylated at their 5′-ends were used to immobilize the primed template nucleic acid onto fiber optic tips functionalized with streptavidin (SA) according to standard procedures. Tips were washed in a Tris-buffered solution containing 200 mM KCl, 160 mM potassium glutamate, and 0.01% Tween-20 before commencing the cycling protocol. Binding reactions conducted using 2 mM of the test metal ion (i.e., 2 mM of the metal salt) were carried out in serial fashion using examination buffers that contained Tris-HCl (pH 8.0), 220 mM KCl, 160 mM potassium glutamate, 0.01% Tween-20, 1 mM β-mercaptoethanol, 100 μg/ml BSA, the correct nucleotide at a concentration of 100 μM, and 200 nM unlabeled Bst DNA polymerase large fragment. Salts used in the testing procedure included: SrCl2, Na3VO4, EuCl3, and CuSO4. Examination buffers in this procedure were supplemented with DMSO and betaine to control DNA secondary structure. Binding steps were carried out for 60 seconds, and were followed by wash steps using a buffer that omitted polymerase, but included 10 μM of the correct dNTP, 100 μM of the incorrect dNTP, and 2 mM of the test metal ion. Retention of the ternary complex was measured over the course of 300 seconds. Surviving ternary complexes were stripped from the primed template by exposure to a solution containing 30 mM Tris-HCl (pH 8.0), 1 M NaCl, 4 mM EDTA, 4 mM DTPA, 0.2% SDS, 0.05% Tween-20, and 3% Tween-80 for a period of 30 seconds. This was followed by exposure to a regeneration solution made Tris-HCl (pH 8.0), 220 mM KCl, 160 mM potassium glutamate, 0.01% Tween-20, 1 mM β-mercaptoethanol, 100 μg/ml BSA for 20 seconds before commencing binding of polymerase and cognate nucleotide in the presence of the next test metal ion.

[2] = system: tested polymerases with primed template nucleic acid; experiment: Discrimination between correct and incorrect nucleotides at higher metal cation concentration; details: cation greater than about 5 mM; 150 mM to 300 mM monovalent metal cations
[3] = target: T2, Bsu DNA polymerase large fragment with primed template nucleic acid (Bacillus subtilis, UniProt O34996); experiment: Biolayer interferometry: discrimination between ternary (cognate dCTP) and binary (non-cognate dGTP) complex formation, KCl titration; details: 2 mM stabilizing cation, KCl 100-650 mM, potassium glutamate 80-640 mM (FIGS. 3, 4)
T2 construct: 350 U/ml Bsu DNA polymerase large fragment
T2 sequence (O34996 297-880 limits assumed): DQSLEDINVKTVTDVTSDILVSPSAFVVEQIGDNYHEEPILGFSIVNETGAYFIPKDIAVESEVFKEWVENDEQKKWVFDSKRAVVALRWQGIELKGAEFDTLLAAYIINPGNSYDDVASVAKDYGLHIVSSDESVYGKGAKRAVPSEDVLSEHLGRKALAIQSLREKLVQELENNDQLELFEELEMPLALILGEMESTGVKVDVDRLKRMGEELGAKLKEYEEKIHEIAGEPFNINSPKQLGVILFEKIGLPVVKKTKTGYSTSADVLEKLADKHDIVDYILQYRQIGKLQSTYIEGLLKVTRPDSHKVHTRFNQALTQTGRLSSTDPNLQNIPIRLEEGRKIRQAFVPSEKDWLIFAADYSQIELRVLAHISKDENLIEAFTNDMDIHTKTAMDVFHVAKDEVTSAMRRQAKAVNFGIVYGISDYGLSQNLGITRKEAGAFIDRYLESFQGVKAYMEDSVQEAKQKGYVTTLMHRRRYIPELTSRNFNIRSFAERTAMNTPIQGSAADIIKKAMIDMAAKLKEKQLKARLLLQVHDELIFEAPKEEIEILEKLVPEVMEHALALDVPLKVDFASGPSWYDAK
Excerpt: Materials and methods used in the procedure were as follows. The FORTEBIO® OCTET® instrument employing biolayer interferometry was used to measure binding reactions at the surface of a fiber optic tip in a multiwell plate format to investigate differential formation of binary and ternary complexes. Template strands biotinylated at their 5′-ends were used to immobilize the primed template nucleic acid onto fiber optic tips functionalized with streptavidin (SA) according to standard procedures. The next correct nucleotide for the biotinylated template DNA was dCTP (with dGTP being used as the model incorrect nucleotide). Tips were first equilibrated in a Tris-buffered solution containing 30 mM Tris-HCl (pH 8.0), and 0.1 mM EDTA before commencing the cycling protocol. […] When using a single contacting step to effect binding of polymerase and nucleotide to the primed template nucleic acid, the binding step was 60 seconds long, with binding interactions being monitored continuously. […] Results from interferometry monitoring were analyzed to identify formation of ternary complexes (i.e., identifying cognate nucleotide) or binary complexes (i.e., identifying non-cognate nucleotide).

SMILES: O=S(=O)([O-])[O-].[Cu+2] [Cu^2+, CuSO4]
- binding signal when ternary complexes formed on primed template nucleic acid [1]: moderately high binding signals
- ternary complex decay / stability following washing [1]: rapid decay

SMILES: [Cl][Eu]([Cl])[Cl] [Eu^3+, EuCl3]
- ability of polymerase to discriminate between correct and incorrect nucleotides [2]: reduced abilities to discriminate between correct and incorrect nucleotides
- binding signal when ternary complexes formed on primed template nucleic acid [1]: high binding signals
- ternary complex binding signal following a wash step, expressed as a percentage of the maximum signal [1]: about 80%
- ternary complex decay / stability following washing [1]: substantially more stable
- discrimination between ternary and binary complex formation [3]: good discrimination between ternary and binary complex formation was achievable

SMILES: [Ni+2] [Ni^2+]
- ability of polymerase to discriminate between correct and incorrect nucleotides [2]: This was not the case

SMILES: [Cl-].[Cl-].[Sr+2] [Sr^2+, SrCl2]
- ability of polymerase to discriminate between correct and incorrect nucleotides [2]: This was not the case
- binding signal when ternary complexes formed on primed template nucleic acid [1]: high binding signals
- ternary complex binding signal following a wash step, expressed as a percentage of the maximum signal [1]: about 40%
- ternary complex decay / stability following washing [1]: slower than observed with V^5+ and Cu^2+ ions

SMILES: [Tb+3] [Tb^3+]
- ability of polymerase to discriminate between correct and incorrect nucleotides [2]: reduced abilities to discriminate between correct and incorrect nucleotides
- ternary complex binding signal following a wash step, expressed as a percentage of the maximum signal [1]: substantially similar to trials conducted using Eu^3+ cations
- ternary complex decay / stability following washing [1]: substantially similar to the use of Eu^3+ ions
- discrimination between ternary and binary complex formation [3]: good discrimination between ternary and binary complex formation was achievable

SMILES: [Na+].[Na+].[Na+].[O]=[V]([O-])([O-])[O-] [V^5+, Na3VO4]
- binding signal when ternary complexes formed on primed template nucleic acid [1]: moderately high binding signals
- ternary complex decay / stability following washing [1]: rapid decay
